Converted amounts (≈) assume the structure as drawn.
Tests used:
[1] = background statement; cited from earlier work
[2] = Preparation of homogenous aqueous carboxymethyl cellulose (CMC) gel; assay type: physicochemical
Source text: This Example illustrates that DBC3333 allowed for CBD, CBN, finasteride and docetaxel to be prepared within aqueous carboxymethyl cellulose (CMC) gels for topical use. […]

[3] = Skin permeation, Franz diffusion cell; conditions: 3 hours
Source text: To collect the data illustrated in this Example, fresh pig skin is placed on a Franz diffusion cell and the formulation of interest is applied to the outer skin surface. After three hours the cell is dismantled and the exposed circular area excised. […] The amount of drug in each section is then quantitated and expressed at mass of drug/gram of tissue.
For cannabinoid aqueous gel preparation for skin permeation study and therapeutic efficacy studies, a water-based gel comprised of water, phenoxyethanol, ethylhexyl glycerin, acrylates/C10-30 alkyl acrylate crosspolymer, sodium hydroxide and allantoin, was used as the gel base. Gel base and diblock copolymer were weighed, mixed together and heated using a microwave for 4 seconds. A homogenous gel containing diblock copolymer was achieved via levigation of the mixture. Gel base without diblock copolymer was weighed and used for the control formula. Commercial cannabinoid-containing extracts containing known quantities of cannabinoid were weighed and dissolved in a pre-weighed amount of cacao butter over 45 °C heat. The cacao butter cannabinoid mixture was then weighed and incorporated into the gel base, with or without diblock copolymer, via levigation to produce the final gel samples. Cannabinoid content of the final gel samples was analyzed using HPLC. […] Gel samples were stored in air-tight containers at 4 °C until the time of use.
For carboxymethyl cellulose (CMC) gel and Glaxal® base preparation for skin permeation study of cannabidiol (CBD), curcumin, capsaicin and finasteride, CMC gel was made using medium viscosity CMC as a 2% w/v aqueous solution following overnight stirring. […] For CMC preparations containing DBC, DBC was weighed into a glass vial and a small volume of the drug of interest in acetonitrile:methanol (50:50) was added to dissolve all. The solution was then dried for 2 hours in a warm oven (50 °C). In all cases the ratio of DBC:drug was 95:5. A known weight of CMC gel was then added to the warmed vial containing the dried DBC/drug mixture and vortexed to disperse and dissolve all drug. Glaxal® base was used as received. Glaxal® base containing drug was prepared by first weighing drug and dissolving in a known volume of ethanol or methanol. The ethanol or methanol drug solution was then added to a weighed amount of Glaxal® base followed by levigation of the mixture. For CBD, capsaicin, docetaxel and finasteride, it was not possible to prepare CMC gels without the use of DBC, due to drug insolubility. Therefore Glaxal® base preparations containing these drugs were employed as DBC-free comparison groups (control) for skin permeation studies.
For carboxymethyl cellulose (CMC) gel and Glaxal® base preparation for skin permeation study of docetaxel, 2% CMC gel was prepared as described above. Docetaxel (DTX) 6 mg was weighed into 190 μL of acetonitrile and 10 μL of 3H radiolabeled DTX was added. Then 66 μL (i.e., 2 mg of drug) was pipetted into a vial with 40 mg of DBC to dissolve all. The contents were dried down and 1 mL of warm 2% CMC gel was added with vortexing to dissolve all DBC and drug as a micellar solution. For Glaxal® paste 66 μL of the drug solution was dried down to approximately 20 μL and 1 gram of Glaxal® base added to disperse the drug.
Fresh pig skin was obtained from a butcher and defatted to 5 mm thickness and shaved. 2 cm^2 pieces were cut with scissors and placed on Franz diffusion cells filled with PBS and clamped. 100 mg of each formulation was weighed and placed on top of the tissue and capped. The cells were placed in a 37 °C humid incubator for three hours and then dismantled. The tissue was washed three times with PBS and the centre drug-loaded circle of tissue was cut out with scissors and snap frozen. Tissues were sectioned by cryosectioning into 50 μm cuts pooled into groups of five.

[4] = Aqueous solubility with/without diblock copolymer (visual, film rehydration)
Experimental: In these studies the cannabinoid and diblock copolymer are dissolved in ethanol and dried to a film. Warm water is added and solubility is assessed by an optically clear solution or via HPLC or UV/Vis spectrophotometry.
Specific methodologies for aqueous solubility studies were as follows. Drug solutions having a concentration of 10 mg/mL were prepared by weighing drug and dissolving in an appropriate amount of ethanol in glass vials. Control drug samples (no diblock copolymer) were prepared by measuring 1 mL of room temperature distilled water in a glass vial and adding an appropriate volume of 10 mg/mL ethanol drug solution, followed by gentle mixing.
Drug samples with diblock copolymer (60:40 MePEG: PLLA, MW 3333 Da “DBC3333”; 57:43 MePEG:PCL, MW 1320 Da “[COMPOUND LEFT OUT]”; 40:60 MePEG:PCL, MW 1890 Da “PCL10”; 30:70 MePEG:PCL, MW 12000 Da “PCL61”) were prepared by weighing diblock copolymer into glass vials then adding 800 microlitres ethanol followed by an appropriate volume of 10 mg/mL ethanol drug solution. The diblock copolymer was dissolved in the ethanol solution via gentle mixing and the solvent was then evaporated via warm oven heating at approximately 50 °C. Once completely dry, 1 ml distilled water was added to the vials followed by gentle mixing. All vials were capped and left at room temperature for 12 hours, at which time the vials were photographed for evidence of precipitation.

[5] = Limit of aqueous solubility with/without PCL25 (HPLC or UV/VIS); assay type: physicochemical; conditions: water
Experimental: Aqueous solubility studies involving diblock copolymer PCL25 (63:37 MePEG:PCL MW 7900 Da) were carried out as follows. 1 mg of drug (either paclitaxel, capsaicin or curcumin) was added to glass vials, designated as either “control” or “diblock copolymer”. Diblock copolymer was omitted from control vials and 100 mg PCL25 was added to diblock copolymer vials. The contents of all vials were then dissolved in 300 microlitres of acetonitrile. The contents were dried at 60 °C for two hours and then 1 mL of warm water (40 °C) was added with vortexing for five minutes. To determine the limit of drug solubility, the contents of each vial were then placed in a microcentrifuge tube and centrifuged at 14000×g for 3 minutes to sediment any undissolved solids. The supernatant was diluted 50% in acetonitrile and the drug was quantitated by HPLC for paclitaxel and capsaicin or by UV/VIS spectrometry (420 nm) for curcumin after 100 fold dilution in acetonitrile for this drug. HPLC conditions were detection at 228 nm for both drugs and a mobile phase of 60:40 (paclitaxel) or 50:50 (capsaicin) acetonitrile:water flowing at 1 mL/min. Calibration standard for all drugs were run in acetonitrile.

[6] = Curcumin release from PVA film; assay type: physicochemical; conditions: for Curcumin released from PVA film: by 2 hours
Experimental: The 88% hydrolyzed version of PVA was used with a molecular weight of between 100000 and 150000 daltons. PVA was dissolved in water at 10% w/v by heating to 90 °C for one hour and then cooled. Separately, 40 mg of diblock copolymer DBC3333 was weighed into a glass vial and 100 μL of curcumin solution (10 mg/mL in ethanol) was added to 2 mL of the 10% PVA solution with mixing to give the non diblock casting solutions. Alternatively, 100 μL of the curcumin solution was added to 40 mg of diblock copolymer to dissolve it and then this was mixed with 2 mL of PVA solution. These give PVA films containing 20% diblock with approximately 0.5% curcumin (1 mg curcumin per film). The films were cast in small petri dishes and air dried at 37 °C for 4 hours.
This observational solubilization experiment added 2 mL of water to the film at t=0 and then at 5, 10, 25 mins the liquid was removed into a test tube for observation.
A second set of the same films were prepared and used for a drug release experiment whereby 10 mL of PBS (10 mM pH 7.4) was added to the films and at specified time points, 100 μL of solution was collected and added to 400 μL of water. The absorbance of these solutions was then measured at 420 nm by uv/vis absorbance.

[7] = test system: osteoarthritis; test: Therapeutic efficacy case reports, osteoarthritis (VAS pain); assay type: in vivo, human
Experimental: (§1) In all cases, therapeutic efficacy studies were carried out with volunteer participants under the supervision of a healthcare practitioner. In all cases, informed consent was obtained. Participants were blinded to the DBC content of the gel samples provided. Participants were offered samples of control cannabinoid gel (no DBC) and asked to apply to the affected area twice daily and as needed for one week. Participants were told to maintain adherence to any prescribed medications while using the cannabinoid gel. Participants were contacted immediately after the one week treatment period for assessment. Following a washout period ranging from 4 to 12 weeks, participants were offered samples of DBC cannabinoid gel and asked to apply in the same manner, twice daily and as needed for one week, while maintaining adherence to any prescribed medications. Participants were contacted immediately after the one week treatment period for assessment. Efficacy was assessed using average daily 10-point visual analogue scale (VAS) pain score prior to beginning treatment and immediately after treatment. Participants were also asked to report all adverse effects experienced, if any, such as skin irritation, skin rash, localized or diffuse discomfort or pain, dizziness, fatigue, impaired concentration, feelings of euphoria or dysphoria, or other psychotropic effects.

[8] = test system: rheumatoid arthritis; test: Therapeutic efficacy case report, rheumatoid arthritis (VAS pain); assay type: in vivo, human
Experimental: as §1

[9] = topical, with DBC3333 vs formulation without
[10] = control, no diblock copolymer, drug 300 μg/mL
[11] = control, no diblock copolymer, drug 600 μg/mL
[12] = control, no diblock copolymer, drug 1000 μg/mL
[13] = diblock 0 mg/ml, drug 0.5 mg/ml
[14] = diblock (name withheld) 50 mg/ml, drug 1 mg/ml
[15] = diblock (name withheld) 50 mg/ml, drug 2 mg/ml
[16] = diblock (name withheld) 50 mg/ml, drug 3 mg/ml
[17] = diblock (name withheld) 50 mg/ml, drug 4 mg/ml
[18] = with DBC3333 50 mg/mL, drug 300 μg/mL
[19] = with DBC3333 50 mg/mL, drug 600 μg/mL
[20] = with DBC3333 50 mg/mL, drug 1000 μg/mL
[21] = with DBC3333 50 mg/mL, drug 2000 μg/mL
[22] = with DBC3333 50 mg/mL, drug 3000 μg/mL
[23] = with diblock copolymer PCL25 100 mg/mL
[24] = control, no diblock copolymer, drug 1 μg/mL
[25] = control, no diblock copolymer, drug 10 μg/mL
[26] = control, no diblock copolymer, drug 100 μg/mL
[27] = control, no diblock copolymer, drug 250 μg/mL
[28] = control, no diblock copolymer, drug 500 μg/mL
[29] = with DBC3333 20 mg/mL, drug 250 μg/mL
[30] = with DBC3333 20 mg/mL, drug 500 μg/mL
[31] = with DBC3333 20 mg/mL, drug 1000 μg/mL
[32] = with DBC3333 20 mg/mL, drug 2000 μg/mL
[33] = with DBC3333 20 mg/mL, drug 3000 μg/mL

CCCCCc1cc(O)c2c(c1)OC(C)(CCC=C(C)C)C=C2 (centres unmarked) [CBC, cannabichromene]
Water solubility [1]: ~1 µg/mL

C=C(C)[C@@H]1CCC(C)=C[C@H]1c1c(O)cc(CCCCC)cc1O [CBD, cannabidiol]
Preparation of homogenous CMC gel ([2]; with DBC3333): allowed | Preparation of homogenous CMC gel ([2]; with diblock copolymer (name withheld)): allowed | Preparation of homogenous CMC gel ([2]; without diblock copolymer): not possible to prepare homogenous CMC gel preparations | Water solubility [1]: ~1 µg/mL | Skin permeation ([3]; CMC gel with diblock copolymer (name withheld) vs identical CBD content in Glaxal base): enhanced skin permeation | Skin permeation [3, 9]: enhanced skin permeation | Aqueous solubility [4, 10]: Insol. | Aqueous solubility [4, 11]: Insol. | Aqueous solubility [4, 12]: Insol. | Solubility [4, 13]: Insol. | Solubility ([4]; diblock 0 mg/ml, drug 1 mg/ml): Insol. | Solubility [4, 14]: soluble | Solubility [4, 15]: soluble | Solubility [4, 16]: Partially | Solubility [4, 17]: Insol. | Aqueous solubility [4, 18]: Soluble | Aqueous solubility [4, 19]: Soluble | Aqueous solubility [4, 20]: Soluble | Aqueous solubility [4, 21]: Partially | Aqueous solubility [4, 22]: Insol.

CCCCCc1cc(O)c(C/C=C(\C)CCC=C(C)C)c(O)c1 [CBG, cannabigerol]
Water solubility [1]: ~1 µg/mL | Aqueous solubility [4, 10]: Insol. | Aqueous solubility [4, 18]: Soluble | Aqueous solubility [4, 19]: Soluble | Aqueous solubility [4, 20]: Soluble | Aqueous solubility [4, 21]: Partially | Aqueous solubility [4, 22]: Insol.

CCCCCc1cc(O)c2c(c1)OC(C)(C)c1ccc(C)cc1-2 [CBN, cannabinol]
Preparation of homogenous CMC gel ([2]; with DBC3333): allowed | Preparation of homogenous CMC gel ([2]; without diblock copolymer): not possible to prepare homogenous CMC gel preparations | Water solubility [1]: ~1 µg/mL | Skin permeation [3, 9]: enhanced skin permeation

COc1cc(CNC(=O)CCCC/C=C/C(C)C)ccc1O [Capsaicin, capsaicin]
Solubility ([5]; control, no diblock copolymer): 10 µg/mL (≈ 32.7 µM) | Solubility [5, 23]: 506 µg/mL (≈ 1660 µM) | Preparation of homogenous CMC gel ([2]; with PCL25): allowed | Preparation of homogenous CMC gel ([2]; without diblock copolymer): not possible to prepare homogenous CMC gel preparations | Skin permeation ([3]; CMC gel with PCL25 vs identical capsaicin content in Glaxal base): enhanced skin permeation

COc1cc(/C=C/C(=O)CC(=O)/C=C/c2ccc(O)c(OC)c2)ccc1O [Curcumin, curcumin]
Solubility ([5]; control, no diblock copolymer): < 1 µg/mL | Solubility [5, 23]: 1000 µg/mL (≈ 2710 µM) | Curcumin release rate from PVA film ([6]; DBC3333 20% w/w to PVA vs no diblock): much faster | Curcumin released from PVA film ([6]; DBC3333 20% w/w to PVA): all drug released | Yellow colour in dish (observational solubilization) ([6]; diblock containing film vs no diblock film): markedly stronger | Curcumin released from PVA film ([6]; no diblock copolymer, room temperature): 6% | Skin permeation [3, 9]: enhanced skin permeation

CC(=O)O[C@H]1C(=O)[C@@]2(C)[C@H]([C@H](OC(=O)c3ccccc3)[C@]3(O)C[C@H](OC(=O)[C@H](O)[C@@H](NC(=O)c4ccccc4)c4ccccc4)C(C)=C1C3(C)C)[C@]1(OC(C)=O)CO[C@@H]1C[C@@H]2O [Paclitaxel, paclitaxel]
Solubility ([5]; control, no diblock copolymer): 2 µg/mL (≈ 2.34 µM) | Solubility [5, 23]: 488 µg/mL (≈ 571 µM)

CCCCCc1cc(O)c2c(c1)OC(C)(C)[C@@H]1CCC(C)=C[C@@H]21 [THC, tetrahydrocannabinol]
Water solubility [1]: ~1 µg/mL | Skin permeation [3, 9]: enhanced skin permeation | Aqueous solubility [4, 24]: Insol. | Aqueous solubility [4, 25]: Insol. | Aqueous solubility [4, 26]: Insol. | Aqueous solubility [4, 27]: Insol. | Aqueous solubility [4, 28]: Insol. | Aqueous solubility [4, 12]: Insol. | Aqueous solubility ([4]; control, no diblock copolymer, drug 2000 μg/mL): Insol. | Solubility [4, 13]: Insol. | Solubility ([4]; diblock 0 mg/ml, drug 1 mg/ml): Insol. | Solubility [4, 14]: soluble | Solubility [4, 15]: soluble | Solubility [4, 16]: soluble | Solubility [4, 17]: Soluble | Aqueous solubility [4, 29]: Soluble | Aqueous solubility [4, 30]: Soluble | Aqueous solubility [4, 31]: Partially | Aqueous solubility [4, 32]: Insol. | Aqueous solubility [4, 33]: Insol. | Aqueous solubility ([4]; with DBC3333 50 mg/mL, drug 500 μg/mL): Soluble | Aqueous solubility [4, 20]: Soluble | Aqueous solubility [4, 21]: Soluble | Aqueous solubility [4, 22]: Partially | Aqueous solubility ([4]; with DBC3333 50 mg/mL, drug 4000 μg/mL): Insol.

CCCCCc1cc2c(c(O)c1C(=O)O)[C@@H]1C=C(C)CC[C@H]1C(C)(C)O2 [THCA, tetrahydrocannabinolic acid]
Skin permeation [3, 9]: enhanced skin permeation | Aqueous solubility [4, 24]: Soluble | Aqueous solubility [4, 25]: Insol. | Aqueous solubility [4, 26]: Insol. | Aqueous solubility [4, 27]: Insol. | Aqueous solubility [4, 28]: Insol. | Aqueous solubility [4, 12]: Insol. | Solubility [4, 13]: Insol. | Solubility ([4]; diblock 0 mg/ml, drug 1 mg/ml): Insol. | Solubility [4, 14]: soluble | Solubility [4, 15]: soluble | Solubility [4, 16]: soluble | Solubility [4, 17]: Soluble | Aqueous solubility [4, 29]: Soluble | Aqueous solubility [4, 30]: Soluble | Aqueous solubility [4, 31]: Soluble | Aqueous solubility [4, 32]: Partially | Aqueous solubility [4, 33]: Insol.

CC(=O)Nc1ccc(O)cc1 [acetaminophen]
Participant's description of efficacy/pain ([7]; Case 1): little to no pain relief or prevention of pain during or after exercise

CC(=O)O[C@@]12CO[C@@H]1C[C@H](O)[C@@]1(C)C(=O)[C@H](O)C3=C(C)[C@@H](OC(=O)[C@H](O)[C@@H](NC(=O)OC(C)(C)C)c4ccccc4)C[C@@](O)([C@@H](OC(=O)c4ccccc4)[C@H]21)C3(C)C [docetaxel]
Preparation of homogenous CMC gel ([2]; with DBC3333): allowed | Preparation of homogenous CMC gel ([2]; without diblock copolymer): not possible to prepare homogenous CMC gel preparations | Skin permeation [3, 9]: enhanced skin permeation

CC(C)(C)NC(=O)[C@H]1CC[C@H]2[C@@H]3CC[C@H]4NC(=O)C=C[C@]4(C)[C@H]3CC[C@]12C [finasteride]
Preparation of homogenous CMC gel ([2]; with DBC3333): allowed | Preparation of homogenous CMC gel ([2]; without diblock copolymer): not possible to prepare homogenous CMC gel preparations | Skin permeation [3, 9]: enhanced skin permeation | Aqueous solubility [4, 10]: Insol. | Aqueous solubility [4, 11]: Insol. | Aqueous solubility [4, 12]: Insol. | Aqueous solubility [4, 18]: Soluble | Aqueous solubility [4, 19]: Partially | Aqueous solubility [4, 20]: Insol. | Aqueous solubility [4, 21]: Insol. | Aqueous solubility [4, 22]: Insol.

CC(C)Cc1ccc(C(C)C(=O)O)cc1 (centres unmarked) [ibuprofen]
VAS pain level after as-needed medication ([7]; Case 1, history, used when pain level reaches 4): 3 | Participant's description of efficacy ([8]; Case 4): mildly effective | VAS pain level after ibuprofen 400 mg ([8]; Case 4, history, from 4): 3

— patent US20260335223A1, “Topical Copolymer Formulations for Hydrophobic Drug Delivery” (1376683 B.C. LTD, priority 2023, published 2026)
